“Also recorded” adds a separate entry of the source. Read-outs that look alike come from different tables or passages of the source.
Legend:
[1] = test system: small intestine of mice with T. gondii infection; test: Small intestine and serum biochemical parameters (GSH, MDA, NO, DAO) of T. gondii-infected mice; format: in vivo; settings: 100 mg/kg oral once a day for 6 days
Source text: (§1) For the in vivo study, KM female mice were divided into groups consisting of six animals each and then intraperitoneally injected with 2 × 10^3 tachyzoites. […] On the last day, heart blood samples were collected after anesthesia to separate the serum, and after mice were sacrificed by cervical dislocation, mice were dissected to obtain organs and tissues. The tachyzoites were harvested from mice peritoneal cavities to determine the level of tachyzoite proliferation. The peritoneal fluid was collected twice; the first time, it was centrifuged at 500 rpm for 10 min, then the supernatant was centrifuged at 2500 rpm for 20 min, discarded, and the worm precipitate was collected at the bottom, and mixed with an appropriate amount of physiological saline. A total of 10 μL of T. gondii suspension was mixed with 10 μL of 4% Trypan blue staining solution in a 1.5 mL centrifuge tube.
The GSH was measured according to the method in [58]. The intestine homogenate was mixed with half volume trichloroacetic acid (20%, w/v) and centrifuged at 4000 rpm for 10 min. Then, phosphate buffer (phosphate 0.3 mol/L, pH 7.5) and 5,5-dithio-bis-(2-nitrobenzoic acid) (0.04%, w/v) were added to the separated supernatant and mixed thoroughly. After 5 min at room temperature, the absorbance was measured at 412 nm.
MDA was measured by the standard method with minor modifications. The small intestine homogenate supernatant was mixed with thiobarbituric acid (0.5%, w/v) and heated in boiling water bath for 1 h, then cooled quickly and centrifuged at 6000 rpm for 10 min; the absorbance of pink colored supernatant was measured at 532 nm. Tetraethoxypropane replaced the intestine homogenate in the standard sample.
(§2) The Greiss method was used to determine the NO content in small intestine tissues and cells. The above small intestine tissue homogenate or IEC-6 cell supernatant was centrifuged at 4 °C and 1500 rpm for 15 min, and the absorbance was measured at 540 nm by adding equal amounts of Griess A and B reagents to the supernatant. The standard used in the NO standard curve was sodium nitrite, and the NO content in the samples was calculated by substituting the absorbance values of the samples into the regression equation of the standard curve.
The DAO evaluation experimental method of Xin Y et al. was adopted, in which mouse heart blood was taken from a 1.5 mL centrifuge tube and centrifuged at 4 °C and 3000× g for 10 min, and the upper layer of serum was taken for measurement. Another 1.5 mL tube was taken and 600 μL of phosphate buffer, 20 μL of horseradish peroxidase, 20 μL of dianisidine dihydrochloride hydrochloride, and 20 μL of 1,5-pentanediamine hydrochloride were added. After that, 100 μL of serum samples to be tested was added, mixed well and heated at 37 °C for 18 h. The absorbance was measured at 436 nm. […]. A total of 100 μL of distilled water was used in the blank tube instead of serum, and the standard used in the standard curve was diamine oxidase. The absorbance value of the experimental samples was substituted into the regression equation of the standard curve to calculate the content of DAO in the serum samples.

[2] = Small intestine function of T. gondii-infected mice (weight, food utilization, carmine excretion); format: in vivo; settings: 100 mg/kg oral once a day for 6 days
Procedure: On the last day, heart blood samples were collected after anesthesia to separate the serum, and after mice were sacrificed by cervical dislocation, mice were dissected to obtain organs and tissues. The tachyzoites were harvested from mice peritoneal cavities to determine the level of tachyzoite proliferation. The peritoneal fluid was collected twice; the first time, it was centrifuged at 500 rpm for 10 min, then the supernatant was centrifuged at 2500 rpm for 20 min, discarded, and the worm precipitate was collected at the bottom, and mixed with an appropriate amount of physiological saline. […] Mouse food intake and body weight were recorded daily for six days during the experiment and were used to record growth performance data. At the end of the experiment, body weight gain, food intake and food utilization of mice were calculated as Equation (1). […] A solution containing 3% carmine dye and 0.5% carboxymethyl cellulose was prepared. On the fifth day of T. gondii infection, each mouse was transferred to a separate cage, with the bottom of the cage completely covered with white paper to facilitate the detection of cochineal in the feces after red feces were eliminated. […] During the experimental period, the mice were free to move around, and eat and drink freely without any external interference, as described.

[3] = test system: IEC-6 cells with T. gondii infection; test: NO level of T. gondii-infected IEC-6 cells (Griess); format: cell-based; settings: Griess method, cell supernatant; compared with Toxo group
Procedure: as §2

[4] = test system: T. gondii; test: Giemsa staining: cell infection rate and intracellular tachyzoites in IEC-6 cells; format: cell-based, Toxoplasma gondii; settings: IEC-6 cells infected 3 h, drug 12 h at the IC50 value of the cells; for cell infection rate: Toxo group 49.2%; for number of intracellular tachyzoites: Toxo group 254
Procedure: (§3) Anti-T. gondii activity and cytotoxicity of indole derivatives in vitro were evaluated by MTT assay (Solarbio, Beijing, China) using a slightly modified version of the procedure of Shang et al.. IEC-6 cells were seeded onto the 96-well plates (2 × 10^3/well) for 24 h to obtain the full monolayer, and then the host cells were infected with T. gondii (parasite: cell = 3:1) in complete medium. After 24 h, cells were washed to remove any extra parasites and then incubated with different concentrations (20, 200, 500 and 1000 μm) of […]. […] After 24 h of treatment, MTT solution was added directly to the culture wells and then incubated for 4 h at 37 °C. The optical absorbance was measured at a wavelength of 548 nm using a microplate reader (SpectraMax M2, Molecular Devices, Sunnyvale, CA, USA). Giemsa staining was used to observe the changes in cell morphology and the proliferation of T. gondii-infected cells. IEC-6 (1 × 10^5 cells/well) was inoculated into 24-well plates containing round coverslip, and after the cells were attached to the wall, T. gondii (3 × 10^5 cells/well) was added to infect the cells for 3 h. After the culture medium was discarded, PBS was added to remove the uninvaded tachyzoites. […] After discarding the supernatant, the cells were washed with PBS and completely aspirated, and then fixed by adding 0.5 mL of methanol for 3 min. Giemsa staining solution was added and shaken slightly to make the staining uniform. Coverslips were rinsed with distilled water to replace the staining solution, and finally, the slices were sealed with neutral gum and air-dried.

[5] = Small intestine histology and pathology scoring of T. gondii-infected mice; format: in vivo; settings: 100 mg/kg oral once a day for 6 days
Source text: as §1
The histology research includes apparent pathological change score, H&E staining and histopathological scores of tissue, as shown in Table 4 and Table 5. In detail, the obtained small intestine tissues were fixed in formalin solution and embedded in paraffin wax after gradual dehydration with different concentrations of ethanol. The paraffin fast was sectioned to a thickness of 5 μm, rehydrated and stained with hematoxylin and eosin, respectively, and finally permeabilized with xylene and sealed with neutral gum. A light microscope was used to observe and collect pictures, and the degree of damage to the small intestinal tissues was assessed according to Chiu’s six-grade scale.

[6] = test system: IEC-6 cells; test: MTT cytotoxicity assay in IEC-6 cells; format: cell-based; settings: MTT, concentration required to reduce IEC-6 cell growth by 50%, 24 h treatment, read-out: IC50 in IEC-6 Cells
Procedure: as §3

[7] = test system: T. gondii; test: MTT anti-T. gondii activity in T. gondii-infected IEC-6 cells; format: cell-based, Toxoplasma gondii; settings: for IC50: MTT, concentration required to reduce T. gondii-infected IEC-6 cell growth by 50%, 24 h treatment, read-out: IC50 in T. gondii
Procedure: as §3

[8] = test system: T. gondii; test: In vivo anti-T. gondii activity, peritoneal tachyzoite count by Trypan Blue; parameters: species or system Toxoplasma gondii; settings: 100 mg/kg oral once a day for 6 days; for Number of Tachyzoites: peritoneal cavity of KM female mice, i.p. 2 × 10^3 tachyzoites, Toxo 12.28 ± 0.39
Source text: as §1

[9] = test system: mice with T. gondii infection; test: Survival rate of mice with T. gondii infection; format: in vivo; settings: acute infection; Toxo group died from day seven
Procedure: All data were expressed as mean ± standard deviation (S.D.) in triplicate. Statistical analyses and graphs were performed using SPSS 16.0 software (SPSS Inc., Chicago, IL, USA) and GraphPad Prism 5.0 (GraphPad Software Inc., San Diego, CA, USA). The method of Kaplan and Meier was used to compare the survival rates of the studied groups. A value of p < 0.05 was considered statistically significant.

Row | Molecule | MDA level in small intestine tissue [1] | NO level in small intestine tissue [1] | food utilization efficiency of mice with T. gondii infection [2] | weight increment of mice with T. gondii infection [2] | NO level of IEC-6 cells with T. gondii infection [3] | cell infection rate [4] | number of intracellular tachyzoites [4] | intestinal barrier damage induced by T. gondii infection (histology, H&E) [5] | IC50 ([6]; Rattus norvegicus) | Selective Index (SI) ([7]; IC50 in IEC-6 cells/IC50 in T. gondii-infected IEC-6 cells) | IC50 ([7]; Toxoplasma gondii) | Inhibition Rate ([8]; mice peritoneal T. gondii, (untreated group − treated group)/untreated group × 100%) | Number of Tachyzoites [8] | IC50 [6] | survival of mice with T. gondii infection [9] | IC50 [7]
1 | Cn1c(-c2ccccc2)c(C=O)c2ccccc21 [A9, 1-Methyl-2-phenylindole-3-carbaldehyde] | effective inhibition of the MDA increase | mitigate the elevated levels | enhanced food utilization efficiency | did not affect this parameter, except for derivative A9 | lowest NO release levels; also recorded: significantly decreased the release of intracellular nitric oxide | 18.0% | more effective than Spy | demonstrate potential in ameliorating intestinal barrier damage | 408.4 ± 3.5 µM | 1.1 | 366 ± 8.8 µM | 28.1% | 8.83 ± 0.39 ×10^6 | – | – | –
2 | Spiramycin [Spy, reference compound] | effective inhibition of the MDA increase | – | – | – | – | 27.7% | 173 | showed no abnormalities in the small intestinal tissues | – | – | – | – | 9.22 ± 1.73 ×10^6 | 246 ± 5.9 µM | extended the survival time | 219 ± 6 µM
